How the values were obtained:
Type in all cases: in vivo
Spodoptera exigua = test: Pesticidal activity against Spodoptera exigua, leaf-dipping method; conditions: counted 24, 48, 72 hours, time not given, read-out: mortality rate, Spodoptera exigua
Description: (§1) Cabbage (Daiya) leaves were cut into pieces with a diameter of 5.8 cm, dipped in the pesticide composition where the compound of Synthesis Example 2 was diluted (the solvent=distilled water+acetone 50,000 mg/L+Triton X-100 100 mg/L) for 30 seconds, and sufficiently shade-dried. Then, the shade-dried cabbage leaves were placed in a petri dish (8.8 cm in diameter) covered with filter paper and repeatedly inoculated 3-5 times with the second to the third instar larvae of Spodoptera exigua, 10 larvae per inoculation. In particular, the Spodoptera exigua larvae used were those purchased from the Bio Utilization Institute (Andong, Korea). Then, the Spodoptera exigua larvae were stored under the conditions of 16 hours of light and 8 hours of dark, 25±1° C. and 50-60% relative humidity, and the number of live Spodoptera exigua larvae was counted 24, 48, and 72 hours after the inoculation. Thereafter, the larvae mortality rate was calculated in the same manner as in Test Example 1 above.

Spodoptera frugiperda = test: Pesticidal activity against Spodoptera frugiperda, leaf-dipping method; conditions: counted 24, 48, 72 hours, time not given, read-out: mortality rate, Spodoptera frugiperda
Description: as §1, with “frugiperda,” for “exigua,”, “frugiperda” for “exigua”, “which were provided by Chung Buk University (Korea) and bred indoors for multiple generations.” for “purchased from the Bio Utilization Institute (Andong, Korea).”

Phaedon brassicae = test: Pesticidal activity against Phaedon brassicae, leaf-dipping method; conditions: counted 24, 48, 72 hours, time not given, read-out: mortality rate, Phaedon brassicae
Description: Cabbage (Daiya) leaves were cut into pieces with a diameter of 5.8 cm, dipped in the pesticide composition where the compound of Synthesis Example 2 was diluted (the solvent=distilled water+acetone 50,000 mg/L+Triton X-100 100 mg/L) for 30 seconds, and sufficiently shade-dried. Then, the shade-dried cabbage leaves were is placed in a petri dish (8.8 cm in diameter) covered with filter paper and repeatedly inoculated 3-5 times with the larvae of Phaedon brassicae, 10 larvae per inoculation. In particular, the Phaedon brassicae larvae used were those which were bred in the Andong National University (Korea) for multiple generations.
After the inoculation, the Phaedon brassicae larvae were stored under the conditions of 16 hours of light and 8 hours of dark, 25±1° C. and 50-60% relative humidity, and the number of live Phaedon brassicae larvae was counted 24, 48, and 72 hours after the inoculation. Thereafter, the larvae mortality rate was calculated in the same manner as in Test Example 1 above.

Manulea degenerella = test: Pesticidal activity against Manulea degenerella, spray method; conditions: third instar larvae, counted 24, 48, 72 hours, time not given
Text: A water-soaked filter paper (9.0 cm in diameter) was placed in an insect breeding dish (Lab Guide®) with a diameter of 9.0 cm and a height of 4.0 cm, and then parafilm (width 4.0 cm×height 4.0 cm) was placed thereon. Before treating with a pesticide composition, 10 of the third instar Manulea degenerella larvae were inoculated per breeding dish using a No. 4 brush. In particular, Manulea degenerella larvae used were those collected in Icheon, Gyeonggi-do (Korea). Then, the pesticide composition where the compound of Synthesis Example 2 was diluted (the solvent=distilled water+acetone 50,000 mg/L+Triton X-100 100 mg/L) was loaded into a 100 mL small sprayer, and sprayed 10-12 times at a distance of 30 cm and a height of 50 cm, and one cotyledons of a persimmon tree, which is a host plant, were added one at a time. Then, the Manulea degenerella larvae were stored under the conditions of 16 hours of light and 8 hours of darkness, 25±1° C., and relative humidity of 50-60%, and the number of live Manulea degenerella larvae was counted 24, 48, and 72 hours after the inoculation. Thereafter, the larvae mortality rate was calculated in the same manner as in Test Example 1 above.

[1] = system: Resistant Plutella xylostella; test: Resistance (tolerance) test against Plutella xylostella; conditions: leaf-dipping, chlorantraniliprole-selected resistant individuals, counted 24 and 48 hours, read-out: mortality rate, Resistant Plutella xylostella
Description: Resistance (tolerance) tests for pesticide compositions were performed on Plutella xylostella. In this case, the Plutella xylostellas used were resistant individuals obtained as follows: radish sprouts were germinated using a moth breeding acrylic cage (25 cm×30 cm×30 cm) to induce egg-laying in a breeding room in the Chungbuk National University (Korea), and the adult insects were collected using an InsectaVac Aspirator (BioQuip®) and induced to lay eggs again by applying a selection pressure using diamide-based chlorantraniliprole at 12.5 ppm once a month to breed for multiple generations.
Cabbage leaves were dipped in the pesticide composition where the compound was diluted (the solvent=distilled water+acetone 50,000 mg/L+Triton X-100 100 mg/L) for 30 seconds, and sufficiently shade-dried. Then, the shade-dried cabbage leaves were placed in a petri dish (8.8 cm in diameter) covered with a filter paper and repeatedly inoculated 3-5 times with third instar larvae of Plutella xylostella, which are resistant individuals, 10 larvae per inoculation. Then, the Plutella xylostella larvae were stored under the conditions of 16 hours of light and 8 hours of dark, 25±1° C., and relative humidity of 50-60%, and the number of live […] larvae was counted 24 and 48 hours after the inoculation. Thereafter, the larvae mortality rate was calculated in the same manner as in Test Example 1 above, and the results are shown in Table 2 below.

Structure (SMILES)	mortality at 1 ppm (Spodoptera exigua) [%]	mortality at 10 ppm (Spodoptera exigua) [%]	mortality at 0.1 ppm (Spodoptera frugiperda) [%]	mortality at 1 ppm (Spodoptera frugiperda) [%]	mortality at 10 ppm (Spodoptera frugiperda) [%]	mortality at 1 ppm (Phaedon brassicae) [%]	mortality at 3 ppm (Phaedon brassicae) [%]	mortality at 10 ppm (Phaedon brassicae) [%]	mortality rate, Manulea degenerella (Manulea degenerella; 0.1 ppm) [%]	mortality rate, Manulea degenerella (Manulea degenerella; 1 ppm)	mortality at 0.1 ppm [1] [%]	mortality at 0.3 ppm [1] [%]	mortality at 1 ppm [1] [%]
Cc1cc(C2=NOC(c3cc(Cl)cc(C(F)(F)F)c3)(C(F)(F)F)C2)ccc1C(=O)NC(=O)C1CC1 (racemic) [Synthesis Example 2]	100	100	100	100	100	100	100	100	100	100%	93	96	100
CON=CNC(=O)c1ccc(C2=NOC(c3cc(Cl)cc(Cl)c3)(C(F)(F)F)C2)cc1C (stereo not shown) [Comparative Example 1, fluxametamide]	100	100	100	100	100	100	100	100	0	16%%	34	38	58
CNC(=O)c1cc(Cl)cc(C)c1NC(=O)c1cc(Br)nn1-c1ncccc1Cl [Comparative Example 2, chlorantraniliprole]	46	71	–	–	–	–	–	–	100	100%	–	–	34
